PMC9000710, “Synthesis and Hemostatic Activity of New Amide Derivatives” (Molecules, 2022)
“Also recorded” adds a separate entry of the source. Structures can show the parent of a compound that is named as a salt. Where a SMILES comes first, the peptide text is derived from it.

Columns and labels:
human blood plasma [1] = assay: Prothrombin time (PT) clotting assay; assay type: biochemical
Method: (§1) Human blood plasma was isolated from fresh buffy coats (collected onto the citrate-dextrose solution—ACD) purchased from the Regional Centre of Blood Donation and Blood Treatment in Lodz, Poland. In the isolation procedure, the buffy coats (60 mL units) were divided into volumes of 10 mL and centrifuged (4000 rpm/15 min) in 15 mL tubes. Next, 1 mL solutions of each amide 1–8 were prepared in distilled water at concentrations of 10, 25, and 50 mg/L. Then, 450 μL of plasma and 50 μL of each amide at the tested concentrations were placed into 1.5 mL vials. The vials were vortexed (Vortex Biosan V-1 plus), incubated at 37 °C on a thermoblock (Dry Block Thermostat Biosan TDB-120), and analyzed using a Kselmed K-3002 OPTIC coagulometer (Grudziądz, Poland), based on the manufacturer’s protocols (described below). The control sample was native blood plasma, untreated with any of the examined substances.
(§2) Fifty microliters of control plasma and plasma samples treated with the amides were transferred to measuring cuvettes and placed in the thermoblock module (37 °C) of a coagulometer (KSELMED, K-3002 Optic). Then, 100 μL of Dia-PT reagent (DIAGON Kft. Hungary; cat. no. 81100) was added. Measurements were started immediately.

human blood plasma [2] = assay: Activated partial thromboplastin time (aPTT) clotting assay; assay type: biochemical; details: for aPTT, effect versus control in words: tested at 10, 25, 50 mg/L
Method: as §1
as §2, with “of the” for “of a”, “Then, 50” for “Then, 100”, “of Dia-APTT” for “of Dia-PT”, “no. 72048) was added. The mixture was incubated for 180 s at 37 °C. Finally, 50 μL of reagent Dia-CaCl2 (DIAGON Kft. Hungary; cat. no. 41192)” for “no. 81100)”

human blood plasma [3] = assay: Thrombin time (TT) clotting assay; assay type: biochemical
Method: as §1
Both 100 μL of control plasma and plasma samples treated with the amides were transferred to measuring cuvettes, which were placed in the thermoblock module (37 °C) of the coagulometer (KSELMED K-3002 Optic). Then, 100 μL of thrombin solution (4.5 U/mL, in 0.9% NaCl; Biomed, Lublin, Poland) was added to the cuvette. Measurements were started immediately.

human blood plasma [4] = assay: Clot formation and fibrinolysis (CFF) assay; assay type: biochemical; details: for Amax (maximum of fibrin clot absorbance at 360 nm) / VmaxC (of Fibrin Polymerization) / VmaxF (of Fibrin Clot Lysis): control plasma assumed as 100%, mean ± SD, n = 5–7; for effect on fibrin polymerization (VmaxC) in words: tested at 10, 25, 50 mg/L; for decrease of VmaxF: concentration not given; for Amax parameter, effect in words: full range of tested concentrations (10–50 µg/mL)
Description: The CFF assay enables analysis of both the blood plasma coagulation process and fibrinolysis efficiency. The thrombin enzyme in the reagent mixture initiates blood plasma fibrinogen polymerization, leading to an increase in absorbance in the sample until the maximal absorbance (Amax) is attained. The fibrinolytic activity of blood plasma is induced by the tissue-type plasminogen activator (t-PA). The activation of fibrinolysis in the tested samples leads to fibrin clot degradation and decreases the absorbance to the baseline.
Figure 11 An exemplary curve of blood plasma coagulation and clot lysis recorded during the clot formation and fibrinolysis (CFF) assay. The first step in the CFF test involves activation of the blood plasma coagulation cascade and fibrin clot formation (1). It is characterized by the maximal velocity of the fibrin polymerization parameter (VmaxC). The maximal absorbance (Amax) peak corresponds to the fibrin stabilization phase and is an indicator of fibrin clot thickness (2). The third step of the CFF assay covers the activation of fibrinolytic mechanisms and fibrin clot degradation (3) and is described by the maximal velocity of clot lysis (VmaxF).
Thrombin was purchased from BioMed (Lublin, Poland). A tissue-type plasminogen activator (Actilyse®) was purchased from Boehringer Ingelheim, Ingelheim am Rhein, Germany. Kinetic measurements were executed using a SpectrostarNano microplate spectrophotometer (BMG LabTech, Ortenberg, Germany).
Measurements were performed using a kinetic model, as described in our previous work. Briefly, blood plasma was preincubated with the examined substances (at final concentrations of 10, 25, and 50 mg/L) for 15 min at 37 °C. Then, 100 μL of blood plasma was added to microtiter plate wells, which was followed by 200 μL of the reagent mixture (0.75 U/mL thrombin, 225 ng/mL t-PA and 7.5 mM CaCl2) suspended in tris-buffered saline (0.05 M TBS, 0.9% NaCl; pH 7.4). Measurements of absorbance changes were started immediately and continued for 60 min at 37 °C, λ = 360 nm. The following parameters were used to determine the effects of the examined substances on the coagulation and fibrinolytic properties of the blood plasma: the maximal velocity of fibrinogen polymerization (VmaxC), which is an indicator of the plasma coagulation efficiency; the maximal absorbance (Amax), which is an indicator of the fibrin clot stabilization and its thickness; the maximal velocity of clot lysis (VmaxF), which is an indicator of blood plasma fibrinolytic activity.

[5] = Hemolysis assay (stability of erythrocytes); assay type: cell-based, human; details: male, human, heparinized whole blood diluted with saline (erythrocytes); for hemolysis at 45 min, 5 mg/L / hemolysis at 120 min, 5 mg/L / hemolysis at 240 min, 5 mg/L: c 5 mg/L
Method: Heparinized whole blood was used from a healthy volunteer. The whole blood (10 mL) was diluted with saline solution (90 mL). For each UV-Vis measurement, 2.5 mL of diluted blood was used. For each blood sample, 1 mL of a saline solution containing hydrochlorides 1–8 at concentrations of 5, 50, and 500 mg/L was added. As a control were used blood samples with the addition of 1% solution of DMSO in saline and 1% solution of SDS in saline. In all cases, the measurements were repeated twice for each concentration. […] The cells were centrifuged, and the absorbance of the supernatant, which contained plasma and lysed erythrocytes, was measured at 540 nm. The percentage of lysis was calculated from a standard curve of lysed erythrocytes treated with SDS [52].

Row | SMILES | Amax (maximum of fibrin clot absorbance at 360 nm) (human blood plasma [4]; 10 mg/L) [%] | VmaxC (of Fibrin Polymerization) (human blood plasma [4]; 10 mg/L) [%] | VmaxF (of Fibrin Clot Lysis) (human blood plasma [4]; 10 mg/L) | Amax (maximum of fibrin clot absorbance at 360 nm) (human blood plasma [4]; 25 mg/L) [%] | VmaxC (of Fibrin Polymerization) (human blood plasma [4]; 25 mg/L) [%] | VmaxF (of Fibrin Clot Lysis) (human blood plasma [4]; 25 mg/L) | Amax (maximum of fibrin clot absorbance at 360 nm) (human blood plasma [4]; 50 mg/L) [%] | VmaxC (of Fibrin Polymerization) (human blood plasma [4]; 50 mg/L) [%] | VmaxF (of Fibrin Clot Lysis) (human blood plasma [4]; 50 mg/L) | effect on fibrin polymerization (VmaxC) in words (human blood plasma [4]) | hemolysis at 45 min, 5 mg/L ([5]; 45 min) [%] | PT Time [% of Control] (human blood plasma [1]; c 10 mg/L) | PT Time [% of Control] (human blood plasma [1]; c 25 mg/L) | PT Time [% of Control] (human blood plasma [1]; c 50 mg/L) | aPTT Time [% of Control] (human blood plasma [2]; c 10 mg/L) | aPTT Time [% of Control] (human blood plasma [2]; c 25 mg/L) | aPTT Time [% of Control] (human blood plasma [2]; c 50 mg/L) | TT Time [% of Control] (human blood plasma [3]; c 10 mg/L) | TT Time [% of Control] (human blood plasma [3]; c 25 mg/L) | TT Time [% of Control] (human blood plasma [3]; c 50 mg/L) | other results
1 | NC[C@H]1CC[C@H](C(=O)O)CC1 [TA, trans-4-(aminomethyl)cyclohexane carboxylic acid, reference compound] | 106.67 ± 3.79 | 101.38 ± 7.89 | total inhibition | 105.87 ± 6.23 | 104.75 ± 9.98 | total inhibition | 106.64 ± 4.65 | 104.85 ± 12.06 | total inhibition | did not influence | – | – | – | – | – | – | – | – | – | – | prothrombin time, effect versus control in words (human blood plasma [1]; concentration not specified (10, 25, 50 mg/L tested), listed as tranexamic acid): slightly shortened; also recorded: slightly but statistically significantly reduced; prothrombin time, effect versus control in words (human blood plasma [1]; two lower concentrations (10 and 25 mg/L)): decreased; aPTT, effect versus control in words (human blood plasma [2]): significantly decreased; aPTT, effect versus control in words (human blood plasma [2]; listed as tranexamic acid): slightly shortened; TT, effect versus control in words (human blood plasma [3]; all used concentrations (10, 25, 50 mg/L)): no effects
2 | NCC(=O)NCC1CCC(C(=O)O)CC1 (centres unmarked) [Amide 7, 2-((((1s,4s)-4-Carboxycyclohexyl)methyl)amino)-2-oxoethanaminium chloride] | 115.64 ± 11.61 | 106.86 ± 9.49 | 66.18 ± 21.32 % | 120.06 ± 25.63 | 104.39 ± 8.60 | 62.99 ± 16.99 % | 113.54 ± 13.76 | 111.45 ± 8.07 | 87.27 ± 8.04% | – | 0 | 95.4 ± 7.4 % of Control | 94.3 ± 9.7 % of Control | 95.3 ± 8.3 % of Control | 98.1 ± 4.6 % of Control | 99.3 ± 3.3 % of Control | 100.6 ± 4.9 % of Control | 97.2 ± 3.3 % of Control | 97.5 ± 2.5 % of Control | 96.9 ± 1.7 % of Control | hemolysis at 120 min, 5 mg/L ([5]; 120 min): 0.21%; hemolysis at 240 min, 5 mg/L ([5]; 240 min): 0.21%; hemolysis at 45 min, 50 mg/L ([5]; c 50 mg/L as printed in the third concentration block of amides 7 and 8, 45 min): 0%; hemolysis at 120 min, 50 mg/L ([5]; c 50 mg/L as printed in the third concentration block of amides 7 and 8, 120 min): 0.23%; hemolysis at 240 min, 50 mg/L ([5]; c 50 mg/L as printed in the third concentration block of amides 7 and 8, 240 min): 0.38%; hemolysis at 45 min, 50 mg/L ([5]; c 50 mg/L, 45 min): 0.41%; hemolysis at 120 min, 50 mg/L ([5]; c 50 mg/L, 120 min): 0.97%; hemolysis at 240 min, 50 mg/L ([5]; c 50 mg/L, 240 min): 0.64%; hemolysis at 45 min, 500 mg/L ([5]; c 500 mg/L, 45 min): 0%; decrease of VmaxF (human blood plasma [4]): 30–40%; Amax parameter, effect in words (human blood plasma [4]): significantly higher
3 | Cl.NCCCCCC(=O)NCCCCCC(=O)O [Amide 4, 6-(6-Aminohexanamido)hexanoic acid hydrochloride] | 115.37 ± 8.73 | 107.93 ± 7.23 | 81.36 ± 21.07 % | 114.07 ± 15.71 | 105.85 ± 7.85 | 70.35 ± 16.30 % | 109.29 ± 9.02 | 105.89 ± 5.64 | 55.95 ± 10.51 % | – | 1 | 97.3 ± 4.2 % of Control | 95.4 ± 2.3 % of Control | 93.7 ± 3.0 % of Control | 98.1 ± 5.2 % of Control | 97.4 ± 5.4 % of Control | 99.9 ± 6.0 % of Control | 96.3 ± 6.9 % of Control | 95.5 ± 8.8 % of Control | 97.6 ± 5.0 % of Control | hemolysis at 120 min, 5 mg/L ([5]; 120 min): 0.74%; hemolysis at 240 min, 5 mg/L ([5]; 240 min): 0.27%; hemolysis at 45 min, 50 mg/L ([5]; c 50 mg/L, 45 min): 0%; hemolysis at 120 min, 50 mg/L ([5]; c 50 mg/L, 120 min): 0.71%; hemolysis at 240 min, 50 mg/L ([5]; c 50 mg/L, 240 min): 0.32%; hemolysis at 45 min, 500 mg/L ([5]; c 500 mg/L, 45 min): 0.38%; hemolysis at 120 min, 500 mg/L ([5]; c 500 mg/L, 120 min): 0.21%; hemolysis at 240 min, 500 mg/L ([5]; c 500 mg/L, 240 min): 0.22%; prothrombin time, effect versus control in words (human blood plasma [1]; two higher concentrations (25 and 50 mg/L)): significantly decreased; decrease of VmaxF (human blood plasma [4]): 30–40%
4 | NCC(=O)NCC(=O)O [Amide 5, Glycylglycine hydrochloride] (H-Gly-Gly-OH) | 106.44 ± 1.78 | 105.80 ± 2.97 | 90.08 ± 13.68% | 107.12 ± 4.65 | 105.88 ± 3.76 | 85.12 ± 16.98 % | 113.43 ± 7.86 | 109.83 ± 1.46 | 89.46 ± 10.48 % | Mild pro-coagulant effects | – | 95.0 ± 10.5 % of Control | 92.0 ± 8.5 % of Control | 93.0 ± 8.3 % of Control | 98.8 ± 5.8 % of Control | 101.1 ± 4.9 % of Control | 100.8 ± 2.6 % of Control | 99.1 ± 6.1 % of Control | 99.0 ± 4.7 % of Control | 97.8 ± 3.3 % of Control | procoagulant activity judged from VmaxC and Amax, in words (human blood plasma [4]; among the tested compounds): most evident procoagulant activity; Amax parameter, effect in words (human blood plasma [4]): significantly higher
